Calls of active or inactive are those of the source.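 Rule for the calls: active = tumour findings in long-term animal cancer tests in more than one sex, species or organ; inactive = no tumour finding and more than one negative test.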
Test: DSSTox (CPDBAS) Carcinogenic Potency Database Summary MultiCellCall Results
Conditions: animal carcinogenicity bioassays, multi-cell call summary
Outline: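 ActivityScore sums 50 for multispecies, 30 for multisex and 20 for multisite positivity. Based on the most positive experiment per sex-species across standardised chronic rodent and other animal cancer tests.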

SMILES	outcome
Cc1cc(O)c2c(c1)C(=O)c1cc(O)cc(O)c1C2=O	inactive; multisex inactive; multispecies inactive
C=CCNN	active; multisite active; multisex active
COS(C)(=O)=O	active; multisite active
CC[N+](=O)[O-]	inactive; multisex inactive
CC1CN(N=O)CC(C)O1 (stereo unspecified)	active; multisite active; multisex active
O=C1O[C@H]([C@@H](O)CO)C(O)=C1O	inactive; multisex inactive; multispecies inactive
NNC(N)=S	inactive; multisex inactive; multispecies inactive
CN(C)CCN(Cc1ccsc1)c1ccccn1	inactive; multisex inactive
CC(C)OC(=O)COc1ccc(Cl)cc1Cl	inactive; multisex inactive
O=C/C=C/O	active; multisite active; multisex active; multispecies active
Nc1c(Cl)cc([N+](=O)[O-])cc1Cl	inactive; multisex inactive
FC(F)(Cl)C(F)(Cl)Cl	inactive; multisex inactive
Cc1ccc2c(c1N)C(=O)c1ccccc1C2=O	active; multisite active; multisex active; multispecies active
CCCCCCCCCCCN(C)N=O	active; multisite active
CNCCc1ccc(OC(=O)C(C)C)c(OC(=O)C(C)C)c1	inactive; multisex inactive
CCCCCN(N=O)C(=O)OCC	active; multisite active
CC(=O)CN(CC(O)CO)N=O (stereo unspecified)	active; multisite active; multispecies active
CC(Oc1ccc(Cl)cc1Cl)C(=O)O (stereo unspecified)	inactive; multisex inactive
Cc1ccccc1N	active; multisite active; multisex active; multispecies active
ClC(Cl)Br	active; multisite active; multisex active; multispecies active
CCCN(CCC)N=O	active; multisite active; multispecies active
CC[N+]([O-])=NC	active; multisite active
CC/C(C)=N/O	active; multispecies active
CN(CCCC(O)c1cccnc1)N=O (stereo unspecified)	active; multisite active

SMILES	outcome
COc1ccc([N+](=O)[O-])cc1N	active; multisite active; multisex active; multispecies active
O=C1CCC(=O)O1	inactive; multisex inactive; multispecies inactive
CCCCC/C=N/N(C)C=O	active; multisite active; multisex active
O=NN(CC(=O)O)CC(=O)O	inactive; multisex inactive
Cc1ccc([N+](=O)[O-])cc1N	active; multisite active; multisex active
CC(=O)NNC(=O)c1ccncc1	active; multisex active
C=CCOc1ccc(CC(=O)O)cc1Cl	inactive; multisex inactive
N	inactive; multisex inactive
O=C(O)c1cc(Oc2ccc(C(F)(F)F)cc2Cl)ccc1[N+](=O)[O-]	active; multisite active; multisex active
COc1cc(-c2ccc(N=Nc3c(S(=O)(=O)O)cc4cc(S(=O)(=O)O)cc(N)c4c3O)c(OC)c2)ccc1N=Nc1c(S(=O)(=O)O)cc2cc(S(=O)(=O)O)cc(N)c2c1O	active; multisite active; multisex active
Cc1[nH]cnc1CSCCN=C(NC#N)N(C)N=O	inactive; multisex inactive; multispecies inactive
CCCCOCCO	active; multisite active; multisex active
O=NN(CCCC(F)(F)F)CCCC(F)(F)F	active; multisite active; multisex active
O=[N+]([O-])c1ccc(-c2cscn2)o1	active; multisite active
O=C(Nc1ccc([N+](=O)[O-])cc1Cl)c1cc(Cl)ccc1O	inactive; multisex inactive; multispecies inactive
O=P1(NCCCl)OCCCN1CCCl (stereo unspecified)	active; multisite active; multisex active; multispecies active
CCOC(=O)CC(SP(=S)(OC)OC)C(=O)OCC (stereo unspecified)	inactive; multisex inactive; multispecies inactive
NC(=O)c1cnccn1	inactive; multisex inactive; multispecies inactive
CN(N=O)C1=Nc2ccc(Cl)cc2C(c2ccccc2)=[N+]([O-])C1	inactive; multisex inactive
COC1[C@@H](O[C@@H]2O[C@H](C)[C@@H](O[C@H]3C[C@@](C)(O)[C@H](OC(=O)CC(C)C)[C@H](C)O3)[C@H](N(C)C)[C@H]2O)[C@@H](CC=O)C[C@@H](C)[C@@H](O)/C=C/C=C/C[C@@H](C)OC(=O)C[C@H]1OC(C)=O (stereo partly specified)	inactive; multisex inactive
O=CCBr	inactive; multisex inactive
OCC(CO)N[C@H]1C[C@](O)(CO)[C@@H](O)[C@H](O)[C@H]1O	inactive; multisex inactive; multispecies inactive
O=C1O[C@@H](CN2CCOCC2)CN1/N=C/c1ccc([N+](=O)[O-])o1	active; multisite active
O=C1C(c2[nH]c3ccc(S(=O)(=O)O)cc3c2O)=Nc2ccc(S(=O)(=O)O)cc21	inactive; multisex inactive; multispecies inactive

SMILES	outcome
Clc1cccc(-c2ccc(Cl)c(Cl)c2Cl)c1Cl	active; multisite active; multisex active; multispecies active
CC1(C)S[C@@H]2[C@H](NC(=O)COc3ccccc3)C(=O)N2[C@H]1C(=O)O	inactive; multisex inactive; multispecies inactive
COC(=O)C1=C(C)NC(C)=C(C(=O)OCCc2ccc(N3CCN(C(c4ccccc4)c4ccccc4)CC3)cc2)C1c1cccc([N+](=O)[O-])c1 (stereo unspecified)	inactive; multisex inactive; multispecies inactive
CC1(C)[C@H](C(=O)O[C@H](C#N)c2cccc(Oc3ccccc3)c2)[C@@H]1C=C(Br)Br	inactive; multisex inactive; multispecies inactive
[Cd+2].[Cl-].[Cl-]	active; multisite active; multisex active
COC(=O)C(c1ccccc1)C1CCCCN1 (stereo unspecified)	active; multisex active
CC(=O)C1C(=O)C=C(C)OC1=O (stereo unspecified)	inactive; multisex inactive
O=C(O)c1ccc(N=Nc2ccc(O)c(C(=O)O)c2)cc1	inactive; multisex inactive; multispecies inactive
NNc1nc(-c2ccc([N+](=O)[O-])o2)cs1	active; multisite active; multispecies active
CC(COc1ccccc1)N(CCCl)Cc1ccccc1 (stereo unspecified)	active; multisex active; multispecies active
CNC(=O)Oc1cc(C)c(N(C)C)c(C)c1	inactive; multisex inactive; multispecies inactive
CC(O)CN(C)c1ccc(NN)nn1 (stereo unspecified)	inactive; multisex inactive
CC(=O)Nc1ccc(CC(=O)O)cc1	inactive; multisex inactive; multispecies inactive
Oc1cccc(O)c1	inactive; multisex inactive; multispecies inactive
C1CNCCN1	inactive; multisex inactive
CC(=O)[O][Hg][c]1ccccc1	inactive; multisex inactive
C=CC(N)=O	active; multisite active; multisex active
ClC(Cl)Cl	active; multisite active; multisex active; multispecies active
CC(C)(C)NC[C@H](O)COc1cccc2c1CCCC2=O	inactive; multisex inactive; multispecies inactive
CN(C)NC(=O)CCC(=O)O	active; multisite active; multisex active; multispecies active
ClC1=C(Cl)[C@]2(Cl)[C@@H]3[C@@H]4C[C@@H]([C@H]5O[C@@H]45)[C@@H]3[C@@]1(Cl)C2(Cl)Cl	active; multisex active
S=C(S)NCCNC(=S)S	inactive; multisex inactive
O=[N+]([O-])OCC(CO[N+](=O)[O-])O[N+](=O)[O-]	active; multisite active; multisex active
CCC1C(=O)OCC1Cc1cncn1C (stereo unspecified)	inactive; multisex inactive

SMILES	outcome
CCn1c2ccccc2c2cc(N)ccc21	active; multisite active; multisex active; multispecies active
CC(O)CCl (stereo unspecified)	inactive; multisex inactive; multispecies inactive
COc1c2occc2cc2ccc(=O)oc12	active; multisite active
C[C@@H]1CC2(O[C@@H]2C)C(=O)O[C@@H]2CCN(C)C/C=C(/COC(=O)[C@]1(C)O)C2=O (stereo partly specified)	active; multisite active; multisex active
CC(O)CN(CC(O)CO)N=O (stereo unspecified)	active; multisite active; multispecies active
Cc1ccc(S(=O)(=O)NC(=O)NN2CCCCCC2)cc1	inactive; multisex inactive; multispecies inactive
CCOP(=S)(OCC)Oc1cc(C)nc(C(C)C)n1	inactive; multisex inactive; multispecies inactive
C/C=C/c1ccc2c(c1)OCO2	inactive; multisex inactive
O=P1(N(CCCl)CCCl)NCCCO1 (stereo unspecified)	active; multisite active; multisex active; multispecies active
C/C=C/C(=O)Oc1c(C(C)CCCCCC)cc([N+](=O)[O-])cc1[N+](=O)[O-] (stereo unspecified)	inactive; multisex inactive
COP(=S)(OC)Oc1ccc(SC)c(C)c1	inactive; multisex inactive; multispecies inactive
NC(=O)CCCCC(N)=O	inactive; multisex inactive; multispecies inactive
O=NN(CCO)CCO	active; multisite active; multisex active
c1ccc(N=Nc2ccccc2)cc1	active; multisite active; multisex active
CC(O)CO (stereo unspecified)	inactive; multisex inactive
CN(N=O)c1ccc(/C=C/c2ccnc3ccccc23)cc1	active; multisex active
CN(C)c1ccc(C(=C2C=CC(=[N+](C)C)C=C2)c2ccc(N(C)C)cc2)cc1	active; multisite active; multisex active
C=C(Cl)CSC(=S)N(CC)CC	active; multisite active; multisex active; multispecies active
CCN(Cc1cccc(S(=O)(=O)O)c1)c1ccc(C(=C2C=CC(=[N+](CC)Cc3cccc(S(=O)(=O)O)c3)C=C2)c2ccc(O)cc2S(=O)(=O)[O-])cc1	inactive; multisex inactive; multispecies inactive
CCN=[N+]([O-])CC	active; multisite active
O=c1cc[nH]c(=O)[nH]1	active; multisex active; multispecies active
CCCC[C@H](C)[C@@H](OC(=O)C[C@H](CC(=O)O)C(=O)O)[C@@H](C[C@H](C)C[C@@H](O)CCCC[C@@H](O)C[C@H](O)[C@H](C)N)OC(=O)C[C@H](CC(=O)O)C(=O)O	active; multisite active; multisex active; multispecies active
C=COC(N)=O	active; multisite active; multisex active
CCC(Cl)CCC(Cl)C(Cl)CC(Cl)C(Cl)C(Cl)CCl (stereo unspecified)	active; multisite active; multisex active; multispecies active
